Source: US10995068B2, “Synthetic sphingolipid-like molecules, drugs, methods of their synthesis and methods of treatment” (The Regents of the University of California, priority 2015, dated 2021)

Tests used:
[1] = molecular target: T1, S1P receptor 2 (Homo sapiens, UniProt O95136); experiment: S1P receptor activation in CHO cells, S1P2; assay type: cell-based; settings: CHO cells over-expressing human S1P2
T1 construct: expressed in transfected cells
Description: (§1) Phosphorylation may have effects on S1P receptor activity that could cause bradycardia. Bradycardia, the dose-limiting toxicity that prevents the use of FTY720 in cancer patients, stems from FTY720-P's actions on S1P receptors 1 and 3. (Camm, J., et al. (2014) Am. Heart J. 168, 632-644; Cohen, J. A., Chun, J. (2011) Ann. Neurol. 69, 759-777; Sanna, M. G., et al. (2004) J. Biol. Chem. 279, 13839-13848; the disclosures of which are incorporated herein by reference). Phosphorylation by sphingosine kinase may make compounds competent to activate S1P receptors. FTY720, for example, when phosphorylated is known to activate S1P receptors 1 and 3. Because compound 5 could be phosphorylated, the activity of compound 5 and its phosphate 5-P (FIG. 28) on S1P receptors was evaluated (FIG. 32).
(§2) 51P1-5 activation: Chinese hamster ovary (CHO) cells stably over-expressing the different human 51P receptor subtypes are used. S1P1, S1P4 and S1P5 overexpressing CHO cells are cultured in medium containing alpha-MEM supplemented with 10% FBS, 50 μg/ml gentamycin and 0.5 mg/ml G418. S1P2 and S1P3 overexpressing CHO cells are cultured in RPMI containing 10% FBS, 50 μg/ml gentamycin and 0.5 mg/ml G418. Prior to stimulation, cells are rendered serum-free for 24 h. Stimulation is carried out for 10 min in serum-free DMEM containing 0.1 mg/ml of fatty-acid free BSA in the absence or presence of the various compounds or 51P. Protein lysates are prepared using a buffer containing (50 mM Tris pH 7.4, 150 mM NaCl, 10% glycerol, 1% Triton X-100, 2 mM EDTA, 2 mM EGTA, 40 mM β-glycerophosphate, 50 mM sodium fluoride, 10 mM sodium pyrophosphate, 2 mM dithiothreitol, 0.2 mM sodium orthovanadate). Cells are homogenized by one 5 sec burst in a MSE Ultrasonic Disintegrator, centrifuged and taken for protein determination. Equal amounts of protein are separated by SDS-PAGE (10% polyacrylamide gel), transferred to nitrocellulose membranes and subjected to Western blot analysis. Bands were stained using IRDye® secondary antibodies and visualized by the LICOR Odyssey® Fc Imaging system. Antibodies against phospho-Thr202/Tyr204-p42/p44-MAPK and phospho-Ser PKC substrate are from Cell Signaling, Frankfurt am Main, Germany. Polyclonal antisera against total p42 and total p44 were generated and characterized as previously described. (Huwiler, A.; Pfeilschifter, J. Br. J. Pharmacol. 1994, 113, 1455-1463; disclosure of which is incorporated herein by reference).

[2] = test system: Pancreas (PANC-1) cancer cell line; experiment: IC50 in cancer cell lines (Table 3), pancreas; assay type: cell-based, human; settings: Mean ± SEM, n ≥ 3
Method: (§3) Having observed a suitable potency of some embodiments of the invention, including, at least with compounds 3-6, 14 in prostate cancer cell lines, other cancer cell lines were tested with these compounds. […] Compounds that were active in prostate cancer cell lines also killed BCR-Abl-positive leukemia cells with similar potency to FTY720.
(§4) Cell culture studies: Sup-B15 cells are maintained at 2-3 million/mL in RPMI 1640 (Mediatech) supplemented with 10% fetal calf serum (FCS, Sigma-Aldrich), 10 mM Hepes (Mediatech), 55 μM β-mercaptoethanol (Sigma-Aldrich), 2 mM L-glutamine (Mediatech), and antibiotics. All adherent cells are maintained at 70-80% confluence. Cell are cultured in the following media: PC3 & A549, Ham's F12K (Corning Cell Gro) supplemented with 10% FCS and antibiotics; DU145 cells, MEM (Corning Cell Gro) supplemented with 10% FCS, 1 mM sodium pyruvate (Mediatech), and antibiotics; SW620 & MDA-MB-231, DMEM (Corning Cell Gro) with 10% FCS, 1 mM sodium pyruvate (Mediatech), and antibiotics; Panc-1 cells, DMEM (Corning Cell Gro) supplemented with 10% FCS and antibiotics. All of the above cell lines are available from the ATCC.
(§5) Viability assays: Cell Titer Glo assays (Cell Titer Glo Luminescent Cell Viability Assay kit, cat #G7571, Promega Corporation) are performed in clear bottom 96-well black cell culture plates (cat #655090, Greiner Bio-One, NC, USA). After plating at 1,000 cells/well in volume of 100 μl, cells are left undisturbed for at least 24 h before drug addition. After 72 h, cells are prepared for analysis by adding 10 μl of 0.1% Triton-X100 in PBS with shaking for 1 min at room temperature (RT). Cell Titer-Glo cell lysis reagent (20 μl) is then added followed by 1 min of shaking and a 10 min incubation in the dark at RT. Luminescence is detected using an IVIS imaging system (IVIS Lumina II, Perkin Elmer, USA). […] IC50s are determined using GraphPad Prism (GraphPad Software, Inc, La Jolla, Calif.). SupB-15 viability was determined by flow cytometry. Cell Titer Glo assays were performed with the other cell lines.

[3] = test system: DU145 prostate cancer cells; experiment: Cell Titer Glo proliferation assay in DU145; assay type: cell-based, human; settings: 72 h, Mean ± SEM, n ≥ 3, read-out: IC50 values in prostate cancer cell lines, DU145
Method: (§6) Previously presented compounds 1-4 (FIG. 23), compounds 5-8 (FIG. 28), and control compound FTY720 (FIG. 2) were used to treat the well-established PC3 and DU145 prostate cancer lines (FIG. 29 and Table 1). A Cell Titer Glo assay was performed to measure proliferation of the cancer lines.
as §4, §5

[4] = test system: Leukemia (SupB-15) cells; experiment: IC50 in cancer cell lines (Table 3), leukemia; assay type: cell-based, human; settings: flow cytometry; Mean ± SEM, n ≥ 3
Method: as §3, §4, §5

[5] = test system: PC3 prostate cancer cells; experiment: Cell viability by vital dye exclusion and flow cytometry in PC3; assay type: cell-based, human; settings: vital dye exclusion (DAPI) and flow cytometry, 72 h
Method: Thus, to determine whether analogues in accordance with embodiments of the invention are cytotoxic, studies were conducted using vital dye exclusion and flow cytometry (Table 2).
as §5

[6] = molecular target: T2, S1P receptor 4 (Homo sapiens, UniProt O95977); experiment: S1P receptor activation in CHO cells, S1P4; assay type: cell-based; settings: CHO cells over-expressing human S1P4
T2 construct: expressed in transfected cells
T2 sequence (O95977 1-384): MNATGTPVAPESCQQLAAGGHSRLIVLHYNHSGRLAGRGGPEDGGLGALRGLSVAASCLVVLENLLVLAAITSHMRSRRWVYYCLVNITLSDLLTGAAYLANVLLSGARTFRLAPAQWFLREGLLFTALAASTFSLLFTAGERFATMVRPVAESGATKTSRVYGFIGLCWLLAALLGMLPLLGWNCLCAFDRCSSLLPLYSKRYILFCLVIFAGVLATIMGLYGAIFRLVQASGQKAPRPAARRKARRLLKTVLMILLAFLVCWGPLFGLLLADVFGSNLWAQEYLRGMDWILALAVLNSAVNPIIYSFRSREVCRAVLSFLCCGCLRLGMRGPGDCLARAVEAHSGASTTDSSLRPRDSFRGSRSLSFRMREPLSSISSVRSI
Description: as §1, §2

[7] = test system: Colon (SW-620) cancer cell line; experiment: IC50 in cancer cell lines (Table 3), colon; assay type: cell-based, human; settings: Mean ± SEM, n ≥ 3
Method: as §3, §4, §5

[8] = test system: Lung (A-549) cancer cell line; experiment: IC50 in cancer cell lines (Table 3), lung; assay type: cell-based, human; settings: Mean ± SEM, n ≥ 3
Method: as §3, §4, §5

[9] = molecular target: T3, S1P receptor 3 (Homo sapiens, UniProt Q99500); experiment: S1P receptor activation in CHO cells, S1P3; assay type: cell-based; settings: CHO cells over-expressing human S1P3
T3 construct: expressed in transfected cells
T3 sequence (Q99500 whole entry): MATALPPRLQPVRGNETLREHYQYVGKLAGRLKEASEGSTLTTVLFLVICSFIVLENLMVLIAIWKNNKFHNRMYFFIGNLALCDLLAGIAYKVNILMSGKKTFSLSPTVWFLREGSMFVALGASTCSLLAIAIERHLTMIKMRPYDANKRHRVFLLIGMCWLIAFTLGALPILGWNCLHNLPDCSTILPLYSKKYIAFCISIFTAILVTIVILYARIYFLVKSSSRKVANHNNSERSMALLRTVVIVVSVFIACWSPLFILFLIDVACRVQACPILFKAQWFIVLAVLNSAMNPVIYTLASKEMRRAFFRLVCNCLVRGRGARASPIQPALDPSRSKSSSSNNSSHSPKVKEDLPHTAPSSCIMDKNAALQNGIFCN
Description: as §1, §2

[10] = molecular target: T4, S1P receptor 5 (Homo sapiens, UniProt Q9H228); experiment: S1P receptor activation in CHO cells, S1P5; assay type: cell-based; settings: CHO cells over-expressing human S1P5
T4 construct: expressed in transfected cells
T4 sequence (Q9H228 whole entry): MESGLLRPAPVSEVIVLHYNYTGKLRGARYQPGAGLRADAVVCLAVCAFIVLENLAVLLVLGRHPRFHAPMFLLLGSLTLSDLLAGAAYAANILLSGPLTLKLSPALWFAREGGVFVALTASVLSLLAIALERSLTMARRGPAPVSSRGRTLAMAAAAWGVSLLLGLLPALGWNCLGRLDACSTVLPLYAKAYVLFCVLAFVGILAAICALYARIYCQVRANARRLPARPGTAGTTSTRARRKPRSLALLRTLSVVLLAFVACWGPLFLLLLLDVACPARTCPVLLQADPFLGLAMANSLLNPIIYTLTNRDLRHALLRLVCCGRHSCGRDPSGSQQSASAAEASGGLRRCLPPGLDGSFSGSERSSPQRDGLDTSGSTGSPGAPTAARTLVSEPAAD
Description: as §1, §2

[11] = test system: Breast (MDA-MB-231) cancer cell line; experiment: IC50 in cancer cell lines (Table 3), breast; assay type: cell-based, human; settings: Mean ± SEM, n ≥ 3
Method: as §3, §4, §5

[12] = molecular target: T5, S1P receptor 1 (Homo sapiens, UniProt P21453); experiment: S1P receptor activation in CHO cells, S1P1; assay type: cell-based; settings: CHO cells over-expressing human S1P1, 10 min stimulation, Western blot
T5 construct: expressed in transfected cells
T5 sequence (P21453 whole entry): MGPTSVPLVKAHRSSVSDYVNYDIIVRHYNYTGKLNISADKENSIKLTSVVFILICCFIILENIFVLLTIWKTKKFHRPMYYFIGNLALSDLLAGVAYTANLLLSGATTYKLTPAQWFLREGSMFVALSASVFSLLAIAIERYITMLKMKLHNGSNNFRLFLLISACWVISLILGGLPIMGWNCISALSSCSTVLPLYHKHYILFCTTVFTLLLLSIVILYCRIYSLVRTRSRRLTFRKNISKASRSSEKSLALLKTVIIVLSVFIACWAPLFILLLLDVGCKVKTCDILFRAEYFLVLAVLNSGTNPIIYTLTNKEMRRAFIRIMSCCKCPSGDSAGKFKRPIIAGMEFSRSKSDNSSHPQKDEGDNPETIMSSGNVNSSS
Description: as §1, §2

[13] = test system: PC3 prostate cancer cells; experiment: Cell Titer Glo proliferation assay in PC3; assay type: cell-based, human; settings: Cell Titer Glo, 72 h; Mean ± SEM, n ≥ 3; read-out: IC50 values in prostate cancer cell lines, PC3
Method: as §6, §4, §5

T1 sequence (O95136 whole entry): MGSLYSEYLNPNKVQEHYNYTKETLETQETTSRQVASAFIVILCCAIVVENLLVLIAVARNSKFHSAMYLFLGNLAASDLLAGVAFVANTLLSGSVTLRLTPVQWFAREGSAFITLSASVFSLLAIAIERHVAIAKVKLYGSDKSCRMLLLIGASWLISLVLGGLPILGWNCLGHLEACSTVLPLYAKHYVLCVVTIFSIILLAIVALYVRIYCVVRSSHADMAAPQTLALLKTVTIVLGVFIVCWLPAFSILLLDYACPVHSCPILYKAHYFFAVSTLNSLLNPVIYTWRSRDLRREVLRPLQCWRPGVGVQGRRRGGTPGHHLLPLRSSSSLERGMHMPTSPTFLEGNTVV

Structure (SMILES): CCCCCCCCc1ccc([C@@H]2CCN[C@H]2COC)cc1.Cl [Compound 14]
- activation of S1P receptor 2 [1]: not able to activate
- IC50 [2]: 4.8 ± 0.6 µM
- IC50 [3]: 5.6 ± 0.1 µM
- IC50 [4]: 7.5 ± 0.4 µM
- IC50 [5]: 4.6 ± 0.4 µM
- activation of S1P receptor 4 [6]: not able to activate
- IC50 [7]: 2.7 ± 0.2 µM
- IC50 [8]: 7.8 ± 1.8 µM
- activation of S1P receptor 3 [9]: not able to activate
- activation of S1P receptor 5 [10]: not able to activate
- IC50 [11]: 4 µM
- activation of S1P receptor 1 [12]: not able to activate
- IC50 [13]: 1.9 ± 0.3 µM
